Test results: BindingDB's records for doi:10.1021/acs.jmedchem.0c00909 (F. Hoffmann-La Roche, 2020)

Biological target: Neurogenic locus notch homolog protein 1 (Homo sapiens, UniProt P46531)
Assay: Inhibition of human Notch1 expressed in HEK293 cells coexpressing luciferase reporter measured after 20 hrs by steady-glo chemiluminescence assay

Neurogenic locus notch homolog protein 1, sequence (P46531 whole entry): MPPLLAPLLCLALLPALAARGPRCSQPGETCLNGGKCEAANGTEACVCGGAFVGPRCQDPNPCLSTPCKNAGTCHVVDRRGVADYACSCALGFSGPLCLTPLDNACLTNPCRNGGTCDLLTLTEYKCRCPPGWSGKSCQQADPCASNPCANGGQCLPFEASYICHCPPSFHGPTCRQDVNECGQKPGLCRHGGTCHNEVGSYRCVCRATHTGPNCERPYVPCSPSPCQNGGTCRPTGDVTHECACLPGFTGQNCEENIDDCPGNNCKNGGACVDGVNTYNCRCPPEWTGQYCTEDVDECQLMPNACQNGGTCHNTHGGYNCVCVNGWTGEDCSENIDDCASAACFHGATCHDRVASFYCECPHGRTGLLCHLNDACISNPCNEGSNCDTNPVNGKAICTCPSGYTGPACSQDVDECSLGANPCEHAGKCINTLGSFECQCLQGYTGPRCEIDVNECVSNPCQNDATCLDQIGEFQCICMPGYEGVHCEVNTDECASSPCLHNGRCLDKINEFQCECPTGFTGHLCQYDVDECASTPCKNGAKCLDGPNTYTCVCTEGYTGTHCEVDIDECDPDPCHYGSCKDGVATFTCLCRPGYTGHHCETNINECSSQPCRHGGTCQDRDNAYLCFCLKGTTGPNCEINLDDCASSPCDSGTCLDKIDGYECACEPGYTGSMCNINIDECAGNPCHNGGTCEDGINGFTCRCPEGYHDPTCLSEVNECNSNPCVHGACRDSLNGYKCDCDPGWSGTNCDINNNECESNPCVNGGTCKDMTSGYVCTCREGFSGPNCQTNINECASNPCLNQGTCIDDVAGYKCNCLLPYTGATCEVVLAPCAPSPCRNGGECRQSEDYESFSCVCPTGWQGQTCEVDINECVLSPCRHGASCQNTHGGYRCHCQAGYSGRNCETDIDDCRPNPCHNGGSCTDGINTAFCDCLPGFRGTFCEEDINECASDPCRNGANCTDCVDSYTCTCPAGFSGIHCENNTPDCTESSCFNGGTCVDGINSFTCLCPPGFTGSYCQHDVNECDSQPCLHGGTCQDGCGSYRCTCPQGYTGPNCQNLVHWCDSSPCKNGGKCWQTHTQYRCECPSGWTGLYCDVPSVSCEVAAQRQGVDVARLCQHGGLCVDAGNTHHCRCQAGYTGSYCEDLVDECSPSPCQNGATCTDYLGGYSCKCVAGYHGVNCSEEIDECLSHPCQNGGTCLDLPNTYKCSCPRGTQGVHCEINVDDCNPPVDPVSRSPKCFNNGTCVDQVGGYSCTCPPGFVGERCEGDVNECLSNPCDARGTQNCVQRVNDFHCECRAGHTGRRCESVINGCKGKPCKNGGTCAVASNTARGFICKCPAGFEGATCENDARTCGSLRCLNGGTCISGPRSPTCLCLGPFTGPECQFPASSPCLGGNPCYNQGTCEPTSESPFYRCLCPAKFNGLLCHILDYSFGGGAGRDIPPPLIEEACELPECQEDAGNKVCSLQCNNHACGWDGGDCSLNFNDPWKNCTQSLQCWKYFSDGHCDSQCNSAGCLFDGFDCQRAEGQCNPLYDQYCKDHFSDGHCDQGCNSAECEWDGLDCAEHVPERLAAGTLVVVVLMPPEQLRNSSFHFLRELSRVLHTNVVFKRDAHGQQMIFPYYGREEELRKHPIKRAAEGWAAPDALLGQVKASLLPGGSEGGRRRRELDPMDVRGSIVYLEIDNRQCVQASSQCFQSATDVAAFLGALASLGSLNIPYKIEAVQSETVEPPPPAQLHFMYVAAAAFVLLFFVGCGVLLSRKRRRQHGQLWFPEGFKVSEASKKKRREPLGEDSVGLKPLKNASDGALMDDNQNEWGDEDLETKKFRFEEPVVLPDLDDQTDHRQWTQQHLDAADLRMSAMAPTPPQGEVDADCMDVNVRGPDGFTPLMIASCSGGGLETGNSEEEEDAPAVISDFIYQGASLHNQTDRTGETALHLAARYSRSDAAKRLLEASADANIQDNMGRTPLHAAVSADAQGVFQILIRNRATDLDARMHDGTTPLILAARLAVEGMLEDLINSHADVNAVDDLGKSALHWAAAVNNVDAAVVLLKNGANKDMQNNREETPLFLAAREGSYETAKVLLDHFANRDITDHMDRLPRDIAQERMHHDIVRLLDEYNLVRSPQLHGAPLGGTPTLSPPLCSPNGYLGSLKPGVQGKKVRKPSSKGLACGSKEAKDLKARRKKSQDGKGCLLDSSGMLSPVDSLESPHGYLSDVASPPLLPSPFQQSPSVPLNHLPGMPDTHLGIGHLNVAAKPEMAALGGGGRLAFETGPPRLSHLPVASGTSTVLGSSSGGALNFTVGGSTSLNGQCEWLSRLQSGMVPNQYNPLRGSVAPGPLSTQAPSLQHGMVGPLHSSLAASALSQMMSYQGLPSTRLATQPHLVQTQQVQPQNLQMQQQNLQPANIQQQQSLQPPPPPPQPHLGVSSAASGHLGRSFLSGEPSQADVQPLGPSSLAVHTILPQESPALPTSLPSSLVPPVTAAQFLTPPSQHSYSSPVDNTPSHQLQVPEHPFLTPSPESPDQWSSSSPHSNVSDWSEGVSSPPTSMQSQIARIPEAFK

| IC50 | SMILES |
| --- | --- |
| > 10 µM | Cc1noc(N2C[C@H]3CC[C@@H](C2)[C@@H]3Nc2nc3c(OCC(F)(F)F)ccc(C(F)(F)F)n3n2)n1 |
| > 10 µM | Cc1cc(N2C[C@H]3CC[C@@H](C2)[C@@H]3Nc2nc3c(OCC(F)F)ccc(C(F)(F)F)n3n2)ncn1 |
| > 10 µM | Cc1nnc(N2C[C@H]3CC[C@@H](C2)[C@@H]3Nc2nc3c(O[C@@H](C)C(F)(F)F)ccc(C(F)(F)F)n3n2)o1 |
